Columns and labels:
ATM-deficient mice = experiment: Thymic tumor formation and premature degeneration in ATM-deficient mice; format: in vivo; conditions: ATM deficiency
Source text: In regulatory gene-dependent syndromes of premature aging, including ataxia telangiectasia, Down syndrome, trichothiodystrophy, Bloom's disease, p53 over-activity (De Boer et al., Science 296: 1276-1281, 2002; Tyner et al., Nature 415: 45-50, 2002), in which life and death of specific cell types are aberrant, appropriate treatments in vitro and in vivo with thiol redox modulators have been partially successful.
Other thiol redox modulators, such as N-acetyl cysteine and dehydrolipoic acid, also delay the premature degeneration of cells and the thymomas. Thiol redox modulators also correct the delayed differentiation and excessive production of DNA in ATM-deficient lymphoid cells (Yan et al., FASEB J. 15: 1132-1138, 2001; Lynn et al., unpublished). However, in the ATM-deficient mice, treatment was fully successful only if the thiol redox modulators were applied early, before two weeks of age and before tumor development.
Whether amino phthalazinediones with other thiol redox modulators, which suppress growth of non-transformed ATM-deficient cells in vitro, can fully suppress tumors in vivo, without toxicity, has not been rigorously evaluated. Cross-linking redox modulators such as diamide, menadione, and oxidized phthalazines are known to stop cell growth, activate caspases, and initiate apoptosis in some tumor cells (Pias and Aw, FASEB J. 16: 781-790, 2002).

MOMU-LV-Ts1 virus = experiment: Movement disorder with paralysis induced by MOMU-LV-Ts1 virus in mice; format: in vivo; conditions: daily intraperitoneal injections of 200 μg
Source text: In mice infected at 2 days of age with the Ts1 virus, hind limb paralysis occurs with severe wasting, especially of immune organs. In humans infected with HIV, severe immune deficiency with sensory and motor neuropathy also results. In these wasting syndromes with disordered life and death pathways in various cells, some therapeutic attempts with thiol redox modulators other than amino phthalazinediones have been partially successful (Lynn and Wong, NeuroImmunomodulation 4: 277-284, 1997; Yan et al., FASEB J. 15: 1132-1138, 2001). In these studies, phthalazinediones plus thiol redox modulators appear to be sufficient to maintain survival and an adequate intracellular thiol redox potential in brain and in thymus.
Since maintaining this excessive and imbalanced 4 Hz oscillation requires increased […] expenditures, agents such as amino phthalazinediones, which can modulate thiol redox status, downregulate mitochondrial energy production, and gain access to the overactivated STN neurons, can potentially suppress the 4 Hz overactivity and thereby suppress and modulate the downstream network activities responsible for the symptoms. […] Whether this is due to suppression of oscillatory activity in neurons, suppression of virus-induced astrocytic inflammatory responses, or both is under investigation. […]

[1] = test system: mitochondrial transmembrane pores; conditions: cited from earlier work

CC(=O)N[C@@H](CS)C(=O)O [N-acetyl cysteine]
premature degeneration of cells and the thymomas (ATM-deficient mice): delay

O=C(O)CCCC[C@@H](S)CCS [dehydrolipoic acid]
premature degeneration of cells and the thymomas (ATM-deficient mice): delay

Nc1cccc2c([O-])n[nH]c(=O)c12.[Na+] [4-sodium amino phthalazinedione]
progress of the movement disorder with paralysis (MOMU-LV-Ts1 virus): significantly delay

CN(C)C(=O)/N=N/C(=O)N(C)C [Diamide]
opening of mitochondrial transmembrane pores [1]: completely opens mitochondrial transmembrane pores

Reference: US9968602B2, “Modulation of cell fates and activities by phthalazinediones” (Bach Pharma, Inc., priority 2002, dated 2018)
